In the oligonucleotide strings, read from the 5' end, every base follows the letter of its sugar. An asterisk marks phosphorothioate; unmarked linkages are phosphodiester. Other units and linkages are bracketed, terminal groups are in braces. A string of capitals states the bases alone. e = 2'-O-(2-methoxyethyl) (MOE); [5mC] = 5-methylcytosine; d = 2'-deoxy (DNA)
Legend:
Format in all cases: cell-based
human Factor 7 mRNA [1] = test: Antisense inhibition of human Factor 7 mRNA in HepB3 cells, lipofectin, 50 nM, real-time RT-PCR; conditions: HepB3 cells
Outline: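 HepB3 cells were transfected by lipofectin with 50 nM antisense oligonucleotide and harvested after about 24 h. Factor 7 mRNA was measured by real-time RT-PCR (primer probe set RTS 2927 in some runs), normalized to RIBOGREEN total RNA, and reported as percent inhibition versus untreated control.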

human Factor 7 mRNA [2] = test: Dose-dependent antisense inhibition of human Factor 7 in HepB3 cells, transfection with lipofectin; conditions: lipofectin, HepB3 cells, 16 hours
Outline: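 HepB3 cells (4,000/well) lipofectin-transfected with antisense oligonucleotide at 3.125 or 6.25 up to 100 nM for ~16 h. Factor 7 mRNA measured by real-time RT-PCR with primer probe set RTS 2927, adjusted to RIBOGREEN total RNA; expressed as percent inhibition versus untreated control cells.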

human Factor 7 mRNA [3] = test: Dose-dependent antisense inhibition of human Factor 7 in HepB3 cells, transfection with electroporation
Procedure: (§1) The gapmers were also transfected via electroporation and their dose-dependent inhibition of human Factor 7 mRNA was measured. Cells were plated at a density of 20,000 cells per well and transfected via electroporation with 3.125 μM, 6.25 μM, 12.5 μM, 25 μM, 50 μM, and 100 μM concentrations of antisense oligonucleotide, as specified in Table 15. After a treatment period of approximately 16 hours, RNA was isolated from the cells and Factor 7 mRNA levels were measured by quantitative real-time PCR. Human Factor 7 primer probe set RTS 2927 was used to measure mRNA levels. Factor 7 mRNA levels were adjusted according to total RNA content, as measured by RIBOGREEN®. Results are presented as percent inhibition of Factor 7, relative to untreated control cells.
as §1, with “Cells were” for “The gapmers were also transfected via electroporation and their dose-dependent inhibition of human Factor 7 mRNA was measured. Cells were”, “in Table 16. After a” for “in Table 15. After a”, “cells and human Factor 7” for “cells and Factor 7”

human Factor 7 mRNA [4] = test: Inhibition of human Factor 7 mRNA by 2-10-2 MOE shortmers in HepB3 cells, electroporation, 1,000 nM; conditions: electroporation, 1,000 nM oligonucleotide, approximately 24 hours, relative to untreated control cells
Outline: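 14-mer 2-10-2 2′-MOE gapmers, full phosphorothioate, 5-methylcytidines, electroporated at 1,000 nM into HepB3 cells (20,000/well). After ~24 h, mRNA quantified by real-time RT-PCR, normalized to RIBOGREEN total RNA; percent inhibition relative to untreated cells.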

[5] = 3.125 μM, 16 hours (Example 7, Table 15)
[6] = 3.125 μM, 16 hours (Example 8, Table 16)
[7] = 6.25 μM, 16 hours (Example 7, Table 15)
[8] = 6.25 μM, 16 hours (Example 8, Table 16)
[9] = 12.5 μM, 16 hours (Example 7, Table 15)
[10] = 12.5 μM, 16 hours (Example 8, Table 16)
[11] = 25 μM, 16 hours (Example 7, Table 15)
[12] = 25 μM, 16 hours (Example 8, Table 16)
[13] = 50 μM, 16 hours (Example 7, Table 15)
[14] = 50 μM, 16 hours (Example 8, Table 16)
[15] = 100 μM, 16 hours (Example 7, Table 15)
[16] = 100 μM, 16 hours (Example 8, Table 16)
[17] = gapmers (5-10-5, 3-14-3, 2-13-5 MOE) targeted to nucleobases 4868 to 4899 of SEQ ID NO: 1

Row | Substance | percent inhibition of Factor 7 mRNA, relative to untreated control cells (human Factor 7 mRNA [2]; 3.125 nM) [%] | percent inhibition of Factor 7 mRNA, relative to untreated control cells (human Factor 7 mRNA [2]; 12.5 nM) [%] | percent inhibition of Factor 7 mRNA, relative to untreated control cells (human Factor 7 mRNA [2]; 25 nM) [%] | percent inhibition of Factor 7 mRNA, relative to untreated control cells (human Factor 7 mRNA [2]; 50 nM) [%] | percent inhibition of Factor 7 mRNA, relative to untreated control cells (human Factor 7 mRNA [2]; 100 nM) [%] | percent inhibition of Factor 7 mRNA, relative to untreated control cells (human Factor 7 mRNA [2]) [%] | percent inhibition of Factor 7 mRNA, relative to untreated control cells (human Factor 7 mRNA [3]; [5]) [%] | percent inhibition of Factor 7 mRNA, relative to untreated control cells (human Factor 7 mRNA [3]; [7]) [%] | percent inhibition of Factor 7 mRNA, relative to untreated control cells (human Factor 7 mRNA [3]; [9]) [%] | percent inhibition of Factor 7 mRNA, relative to untreated control cells (human Factor 7 mRNA [3]; [11]) [%] | percent inhibition of Factor 7 mRNA, relative to untreated control cells (human Factor 7 mRNA [3]; [13]) [%] | percent inhibition of Factor 7 mRNA, relative to untreated control cells (human Factor 7 mRNA [3]; [15]) [%] | % inhibition of human Factor 7 mRNA (human Factor 7 mRNA [4]) [%] | other results
1 | 422130 (antisense eG*e[5mC]*e[5mC]*eT*eG*dA*dG*dG*d[5mC]*d[5mC]*dA*dG*d[5mC]*dA*dG*eA*eT*e[5mC]*eA*e[5mC]) [compound 422130] | 4 | 34 | 59 | 77 | 85 | 15 | 28 | 29 | 59 | 61 | 73 | 86 | – | % Inhibition of human Factor 7 mRNA levels (human Factor 7 mRNA [1]; gapmers targeted to nucleobases 14707 to 14732 of SEQ ID NO: 1 (Table 11)): 79%; percent inhibition of Factor 7 mRNA, relative to untreated control cells (human Factor 7 mRNA [3]; [6]): 14%; percent inhibition of Factor 7 mRNA, relative to untreated control cells (human Factor 7 mRNA [3]; [8]): 24%; percent inhibition of Factor 7 mRNA, relative to untreated control cells (human Factor 7 mRNA [3]; [10]): 61%; percent inhibition of Factor 7 mRNA, relative to untreated control cells (human Factor 7 mRNA [3]; [12]): 68%; percent inhibition of Factor 7 mRNA, relative to untreated control cells (human Factor 7 mRNA [3]; [14]): 82%; percent inhibition of Factor 7 mRNA, relative to untreated control cells (human Factor 7 mRNA [3]; [16]): 88%
2 | 422140 (antisense eG*eT*eT*e[5mC]*eT*dG*d[5mC]*dA*dG*dG*dA*dG*d[5mC]*dG*dG*e[5mC]*e[5mC]*eT*eA*eA) [compound 422140] | 18 | 49 | 64 | 74 | 74 | 35 | 29 | 34 | 51 | 64 | 69 | 77 | – | % Inhibition of human Factor 7 mRNA levels (human Factor 7 mRNA [1]; [17]): 74%
3 | 422152 (antisense eA*eT*eG*d[5mC]*dA*dT*dG*dG*dT*dG*dA*dT*dG*d[5mC]*dT*dT*d[5mC]*eT*eG*eA) [compound 422152] | 18 | 47 | 67 | 83 | 89 | 29 | 14 | 22 | 32 | 44 | 65 | 76 | – | % Inhibition of human Factor 7 mRNA levels (human Factor 7 mRNA [1]; gapmers targeted to nucleobases 15188 to 15211 of SEQ ID NO: 1 (Table 13)): 74%
4 | 422292 (antisense eG*eT*dT*d[5mC]*dT*dG*d[5mC]*dA*dG*dG*dA*dG*d[5mC]*dG*dG*e[5mC]*e[5mC]*eT*eA*eA) [compound 422292] | 13 | 44 | 63 | 81 | 83 | 21 | 36 | 25 | 47 | 59 | 75 | 86 | – | % Inhibition of human Factor 7 mRNA levels (human Factor 7 mRNA [1]; [17]): 75%; percent inhibition of Factor 7 mRNA, relative to untreated control cells (human Factor 7 mRNA [3]; [6]): 31%; percent inhibition of Factor 7 mRNA, relative to untreated control cells (human Factor 7 mRNA [3]; [8]): 40%; percent inhibition of Factor 7 mRNA, relative to untreated control cells (human Factor 7 mRNA [3]; [10]): 68%; percent inhibition of Factor 7 mRNA, relative to untreated control cells (human Factor 7 mRNA [3]; [12]): 75%; percent inhibition of Factor 7 mRNA, relative to untreated control cells (human Factor 7 mRNA [3]; [14]): 82%; percent inhibition of Factor 7 mRNA, relative to untreated control cells (human Factor 7 mRNA [3]; [16]): 83%
5 | 422252 (antisense e[5mC]*eG*d[5mC]*d[5mC]*dG*dG*d[5mC]*dT*d[5mC]*dT*dG*d[5mC]*dT*d[5mC]*dA*eT*e[5mC]*e[5mC]*e[5mC]*e[5mC]) [compound 422252] | 18 | 45 | 61 | 77 | 87 | 17 | 23 | 12 | 26 | 38 | 58 | 80 | – | % Inhibition of human Factor 7 mRNA levels (human Factor 7 mRNA [1]; gapmers targeted to nucleobases 13760 to 13789 of SEQ ID NO: 1 (Table 10)): 70%
6 | 435670 (antisense e[5mC]*eA*dA*d[5mC]*dA*dG*dG*dA*d[5mC]*d[5mC]*dT*dG*e[5mC]*e[5mC]) [compound 435670] | – | – | – | – | – | – | – | – | – | – | – | – | 47 | –
7 | 435763 (antisense eA*eG*dG*dA*dG*dA*dA*dA*dG*dG*dT*d[5mC]*eA*eG) [compound 435763] | – | – | – | – | – | – | – | – | – | – | – | – | 2 | –
8 | 435797 (antisense eA*eA*dT*d[5mC]*dT*dT*dG*dG*d[5mC]*d[5mC]*d[5mC]*d[5mC]*eT*e[5mC]) [compound 435797] | – | – | – | – | – | – | – | – | – | – | – | – | 16 | –
9 | 435739 (antisense e[5mC]*eA*dT*d[5mC]*dT*d[5mC]*dA*dG*dA*dG*dG*dA*eT*eG) [compound 435739] | – | – | – | – | – | – | – | – | – | – | – | – | 5 | –
10 | 435486 (antisense eG*eT*d[5mC]*d[5mC]*dT*dG*dG*dG*dT*d[5mC]*dA*dT*e[5mC]*eA) [compound 435486] | – | – | – | – | – | – | – | – | – | – | – | – | 64 | –
11 | 435819 (antisense eT*eT*dT*dG*dT*d[5mC]*d[5mC]*dA*dG*dT*dA*dA*eG*eA) [compound 435819] | – | – | – | – | – | – | – | – | – | – | – | – | 1 | –
12 | 435501 (antisense eT*eA*d[5mC]*dT*dG*dG*dG*dA*dG*dA*d[5mC]*d[5mC]*e[5mC]*eT) [compound 435501] | – | – | – | – | – | – | – | – | – | – | – | – | 51 | –
13 | 435824 (antisense e[5mC]*e[5mC]*dT*dA*dA*dA*dG*dA*dT*dG*dA*dA*eT*e[5mC]) [compound 435824] | – | – | – | – | – | – | – | – | – | – | – | – | 21 | –
14 | 435688 (antisense eA*e[5mC]*d[5mC]*dA*d[5mC]*dA*dT*dG*dG*dT*d[5mC]*dA*eG*eT) [compound 435688] | – | – | – | – | – | – | – | – | – | – | – | – | 0 | –

— patent publication US20120214862A1, “MODULATION OF FACTOR 7 EXPRESSION” (ISIS Pharmaceuticals, Inc., priority 2009, published 2012)
